From PMC6272605, “Development and Validation of a Docking-Based Virtual Screening Platform for the Identification of New Lactate Dehydrogenase Inhibitors” (Molecules, 2015)

Tested on: LDH
Experiment: not given
Parameters: method as in earlier work
Conditions: Table S1, active compounds included in the enriched dataset; LDH inhibitors binding the open conformation in the presence of NADH; cited from earlier work

Question: With `Cc1nc2ccc(NC(=O)CCNC(=O)CCCc3ccc(CC(C(=O)O)C(=O)O)cc3)cc2s1` [Compound 2] as the compound, how does the IC50 read?
Answer: The IC50 was 12.1 µM.

Question: Which IC50 does the source give for `C[C@@H](Nc1nc(-c2cc(C(=O)O)ccc2Cl)cnc1N)c1ccccc1` [Compound 3] here?
Answer: Its IC50 is 0.48 µM.

Question: For `Nc1ccc(C(=O)O)cc1` [Compound 4], which IC50 is on record?
Answer: The IC50 was 0.75 µM.

Question: With `COC(=O)c1ccc(N)cc1` [Compound 5] as the compound, how does the IC50 read?
Answer: Its IC50 is 0.71 µM.

Question: Which IC50 does the source give for `COC(=O)c1ccc(NCCO)cc1` [Compound 6] here?
Answer: The IC50 was 0.65 µM.

Question: With `COC(=O)c1ccc(NS(=O)(=O)c2ccc(C)cc2)cc1` [Compound 7] as the compound, how does the IC50 read?
Answer: The IC50 was 7.4 µM.

Question: With `NCC(O)c1ccccc1` (centres unmarked) [Compound 8] as the compound, how does the IC50 read?
Answer: The IC50 was 4 µM.

Question: With `O=C1NCC(c2ccccc2)O1` (centres unmarked) [Compound 9] as the compound, how does the IC50 read?
Answer: Its IC50 is 14 µM.

Question: For `CC(C)(C)OC(=O)CN1CC(c2ccccc2)OC1=O` (centres unmarked) [Compound 10], which IC50 is on record?
Answer: Its IC50 is 10 µM.

Molecular target: T1, purified human lactate dehydrogenase isoform 5 (hLDH5) (Homo sapiens, UniProt P00338)
T1 construct: purchased Lee Biosolution, Inc., St. Louis, MO, USA
Experiment: hLDH5 inhibition assay (pyruvate→lactate, NADH fluorescence)
Type: biochemical
Conditions: 200 μM pyruvate, 40 μM NADH, phosphate buffer pH 7.4, 15 min incubation
Experimental: LDH assays: The LDH inhibition properties of the selected compounds were evaluated against purified human lactate dehydrogenase isoform 5 (Lee Biosolution, Inc., St. Louis, MO, USA). The “forward” direction (pyruvate→lactate) of the lactate dehydrogenase reaction was conducted, and the kinetic parameters were measured by fluorescence (emission wavelength at 460 nm, excitation wavelength at 340 nm) to monitor the amount of consumed NADH. Assays were carried out in wells containing 200 μL of a reagent solution dissolved in 100 mM phosphate buffer (pH = 7.4). For the IC50 calculations of the compounds, seven different concentrations (in duplicate for each concentration) of the isolated compounds were used to produce the concentration-response curve. All of the compounds were tested in the presence of 200 μM pyruvate and 40 μM NADH. Any background fluorescence likelihood of the tested samples, or NADH fluorescence quenching, was subtracted. In addition to the sample test wells, maximum and minimum controls were also included in each plate. After 15 min of incubation, the final measurements were carried out by using a Victor X3 Microplates Reader (PerkinElmer®). IC50 values were produced using GraphPad Prism software.

Question: For `O=C(O)c1cc2c(C(F)(F)F)cc(-c3ccccc3)cc2n1O` [NHI-1], which IC50 is on record?
Answer: Its IC50 is 51.7 ± 4.2 µM.

Question: With `O=C(O)c1ccc(NCCO)cc1` [VS1, 4-((2-Hydroxyethyl)amino)benzoic acid] as the compound, how does the IC50 read?
Answer: Its IC50 is over 500 µM.

Question: For `Cc1ccc(S(=O)(=O)Nc2ccc(C(=O)O)cc2)cc1` [VS2, 4-(4-Methylphenylsulfonamido)benzoic acid], which IC50 is on record?
Answer: The IC50 was over 500 µM.

Question: Which IC50 does the source give for `O=C(O)CN1CC(c2ccccc2)OC1=O` (centres unmarked) [VS3, 2-(2-Oxo-5-phenyloxazolidin-3-yl)acetic acid] here?
Answer: The IC50 was over 500 µM.

Question: With `O=C(O)CCCC(=O)Nc1ccccc1` [VS4] as the compound, how does the IC50 read?
Answer: Its IC50 is over 500 µM.

Question: Which IC50 does the source give for `Cc1ccc(C)c(C(O)C(=O)O)c1` (centres unmarked) [VS5] here?
Answer: The IC50 was over 500 µM.

Question: For `CC(C)C(NC(=O)OCc1ccccc1)C(=O)Nc1ccccc1` (centres unmarked) [VS6], which IC50 is on record?
Answer: The IC50 was 246 ± 10.8 µM.

Question: With `O=C(O)CCC(=O)c1ccc(F)cc1` [VS7] as the compound, how does the IC50 read?
Answer: Its IC50 is over 500 µM.

Question: Which IC50 does the source give for `COC(=O)C(NC(=O)c1cc([N+](=O)[O-])cc([N+](=O)[O-])c1)c1ccccc1` (centres unmarked) [VS8] here?
Answer: The IC50 was 269 ± 58.1 µM.

Question: Which IC50 does the source give for `Cc1ccc(C(N)C(=O)O)cc1` (centres unmarked) [VS10] here?
Answer: Its IC50 is over 500 µM.

Question: Which IC50 does the source give for `O=c1cc2oc(O)c3cc(O)c(O)c(O)c3c-2oc1=O` [galloflavin] here?
Answer: Its IC50 is 91.7 ± 10.7 µM.
